Among the data in patent US9206183B2, “Substituted pyrazolo[1,5-a]pyridines as JAK inhibitors” (ALMIRALL, S.A., priority 2010, dated 2015) are IC50 values, retold here.

Common to all, as to format: biochemical
The target of test [1] is T1, human JAK1 (aa 850-1154) (Homo sapiens, UniProt P23458).
T1 construct: human JAK1 (aa 850-1154); GST (N); purchased Carna Biosciences; host or cells: baculovirus expression system
Briefly: In vitro JAK kinase assay (TR-FRET), JAK1. To be noted: catalytic domain GST-fusion; ATP 3 μM; peptide 60 nM; 30 minutes at room temperature. Here is the method:
(§1) Compounds were screened for their ability to inhibit JAK1, JAK2 and JAK3 using the assays as indicated below.
(§2) The catalytic domains of human JAK1 (aa 850-1154), JAK2 (aa 826-1132), JAK3 (aa 795-1124) and Tyk2 (aa 871-1187) were expressed as N-terminal GST-fusion proteins using a baculovirus expression system and were purchased from Carna Biosciences. The enzymatic activity was assayed using as substrate a biotinylated peptide, poly (GT)-Biotin (CisBio). The peptide concentration in the reactions was 60 nM for JAK1, 20 nM for JAK2, 140 nM for JAK3 and 50 nM for Tyk2. The degree of phosphorylation was detected by TR-FRET (time-resolved fluorescence energy transfer). IC50s of compounds were measured for each kinase in a reaction mixture containing the enzyme, ATP and the peptide in 8 mM MOPS (pH 7.0), 10 mM MgCl2, 0.05% β-mercaptoethanol, 0.45 mg/ml BSA. The ATP concentration in the reactions was 3 μM for JAK1, 0.2 μM for JAK2, 0.6 μM for JAK3 and 1.8 μM for Tyk2. The enzymatic reactions took place for 30 minutes at room temperature. Then, the reactions were stopped with 20 μL of quench detection buffer (50 mM HEPES, 0.5 M KF, EDTA 0.25 M, 0.1% (w/v) BSA, pH 7.5) containing 0.115 μg/mL of anti-phosphoTyr (PT66)-Cryptate (CisBio) and a variable concentration of SA-XL665 (CisBio) to keep the SA-B ratio constant. Incubate for 3 h and read on Victor 2V spectrofluorometer (PerkinElmer) set to read fluorescence resonance energy transfer.
For orientation: Time-resolved FRET reads energy transfer from a long-lived donor to a nearby acceptor.

The target of test [2] is T2, human JAK2 (aa 826-1132) (Homo sapiens, UniProt O60674).
T2 construct: JAK2 (aa 826-1132); GST (N); purchased Carna Biosciences; host or cells: baculovirus expression system
T2 sequence (O60674 826-1132): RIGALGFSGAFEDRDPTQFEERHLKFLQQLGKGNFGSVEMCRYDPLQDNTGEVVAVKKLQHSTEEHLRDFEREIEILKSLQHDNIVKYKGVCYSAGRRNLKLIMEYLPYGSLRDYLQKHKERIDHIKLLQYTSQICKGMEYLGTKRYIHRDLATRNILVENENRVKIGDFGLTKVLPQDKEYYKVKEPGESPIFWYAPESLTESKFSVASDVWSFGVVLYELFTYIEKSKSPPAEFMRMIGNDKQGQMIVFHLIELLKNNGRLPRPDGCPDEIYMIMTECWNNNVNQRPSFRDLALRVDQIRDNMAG
Briefly: In vitro JAK kinase assay (TR-FRET), JAK2. The following applies: catalytic domain GST-fusion; ATP 0.2 μM; peptide 20 nM; 30 minutes at room temperature. Here is the method: as §1, §2

Test [3] has as its target T3, human JAK3 (aa 795-1124) (Homo sapiens, UniProt P52333).
T3 construct: JAK3 (aa 795-1124); GST (N); purchased Carna Biosciences; host or cells: baculovirus expression system
Briefly: In vitro JAK kinase assay (TR-FRET), JAK3. To be noted: catalytic domain GST-fusion; ATP 0.6 μM; peptide 140 nM; 30 minutes at room temperature. How it is done: as §1, §2

T1 sequence (P23458 850-1154): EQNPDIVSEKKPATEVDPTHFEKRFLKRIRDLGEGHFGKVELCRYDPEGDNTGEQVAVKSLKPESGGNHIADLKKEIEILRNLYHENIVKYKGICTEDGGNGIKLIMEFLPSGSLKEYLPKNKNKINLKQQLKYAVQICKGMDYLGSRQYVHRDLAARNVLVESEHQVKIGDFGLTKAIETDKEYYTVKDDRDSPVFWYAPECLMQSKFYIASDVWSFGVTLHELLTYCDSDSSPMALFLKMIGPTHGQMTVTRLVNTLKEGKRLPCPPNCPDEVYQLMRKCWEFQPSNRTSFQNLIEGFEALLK
T3 sequence (P52333 795-1124): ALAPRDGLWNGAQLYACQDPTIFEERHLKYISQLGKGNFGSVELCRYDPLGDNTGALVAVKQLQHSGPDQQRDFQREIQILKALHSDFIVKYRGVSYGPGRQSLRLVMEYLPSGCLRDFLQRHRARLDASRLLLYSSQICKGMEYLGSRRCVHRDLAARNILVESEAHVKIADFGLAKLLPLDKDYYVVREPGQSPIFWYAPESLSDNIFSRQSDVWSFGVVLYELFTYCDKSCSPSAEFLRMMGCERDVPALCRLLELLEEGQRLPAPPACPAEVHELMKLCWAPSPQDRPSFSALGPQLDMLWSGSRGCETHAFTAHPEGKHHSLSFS

As a reminder, the IC50 is the concentration that inhibits the measured activity by half. A high value points to a need for much substance. As to `COC[C@H](C)Nc1ccnc(-c2cnn3ccc(C#N)cc23)n1` [Example 5, 3-(4-{[(1S)-2-Methoxy-1-methylethyl]amino}pyrimidin-2-yl)pyrazolo[1,5-a]pyridine-5-carbonitrile], the IC50 in test [1] is 100 to 1000 nM; in test [2] it was below 100 nM; in test [3] it was below 100 nM.

In the case of `N#Cc1ccn2ncc(-c3nccc(NCC(F)(F)F)n3)c2c1` [Example 7, 3-{4-[(2,2,2-Trifluoroethyl)amino]pyrimidin-2-yl}pyrazolo[1,5-a]pyridine-5-carbonitrile], the IC50 was above 1000 nM in test [1], below 100 nM in test [2] and 100 to 1000 nM in test [3].

With `N#CCC(=O)N1CCC[C@@H](Nc2ccnc(-c3cnn4ccc(C#N)cc34)n2)C1` [Example 14, 3-(4-{[(3R)-1-(Cyanoacetyl)piperidin-3-yl]amino}pyrimidin-2-yl)pyrazolo[1,5-a]pyridine-5-carbonitrile], the IC50 is 100 to 1000 nM in test [1], below 100 nM in test [2] and below 100 nM in test [3].

Turning to `N#Cc1ccn2ncc(-c3nccc(N[C@H]4CC[C@H](O)CC4)n3)c2c1` [Example 19, 3-(4-((Trans)-4-Hydroxycyclohexylamino)pyrimidin-2-yl)pyrazolo[1,5-a]pyridine-5-carbonitrile], the figures for the IC50 in test [1], in test [2] and in test [3] were 100 to 1000 nM, below 100 nM and below 100 nM, respectively.

Consider `C[C@H](Nc1ccnc(-c2cnn3ccncc23)n1)c1ccccc1` [Example 21, (S)—N-(1-phenylethyl)-2-(pyrazolo[1,5-a]pyrazin-3-yl)pyrimidin-4-amine], for which the IC50 in test [1], in test [2] and in test [3] was below 100 nM in each case.

With `N#Cc1ccc(N2CCC[C@@H](Nc3ccnc(-c4cnn5ccncc45)n3)C2)nc1` [Example 25, 6-{(3R)-3-[(2-Pyrazolo[1,5-a]pyrazin-3-ylpyrimidin-4-yl)amino]piperidin-1-yl}nicotinonitrile], the IC50 is 100 to 1000 nM in test [1], below 100 nM in test [2] and below 100 nM in test [3].

`CN(c1ccnc(-c2cnn3ccncc23)n1)[C@@H]1CCCN(C(=O)CC#N)C1` [Example 27, 3-{(3R)-3-[Methyl(2-pyrazolo[1,5-a]pyrazin-3-ylpyrimidin-4-yl)amino]piperidin-1-yl}-3-oxopropanenitrile]: the results for the half-maximal inhibitory concentration (IC50) in test [1], in test [2] and in test [3] were 100 to 1000 nM, below 100 nM and below 100 nM, respectively.

For `O=C(CC(F)(F)F)N1CCC[C@@H](Nc2nc(-c3cnn4ccncc34)ncc2F)C1` [Example 30, 5-Fluoro-2-pyrazolo[1,5-a]pyrazin-3-yl-N-[(3R)-1-(3,3,3-trifluoropropanoyl)piperidin-3-yl]pyrimidin-4-amine], the concentration for half-maximal inhibition (IC50) is 100 to 1000 nM in test [1], below 100 nM in test [2] and below 100 nM in test [3].

Consider `Nc1cnc(-c2cnn3ccncc23)nc1NC1CCOCC1` [Example 35, 2-(Pyrazolo[1,5-a]pyrazin-3-yl)-N^4-(tetrahydro-2H-pyran-4-yl)pyrimidine-4,5-diamine], for which the half-maximal inhibitory concentration (IC50) is 100 to 1000 nM in test [1], below 100 nM in test [2] and 100 to 1000 nM in test [3].

Consider `C[C@H](Nc1nc(-c2cnn3ccncc23)ncc1Cl)c1ccc(F)cn1` [Example 37, (S)-5-Chloro-N-(1-(5-fluoropyridin-2-yl)ethyl)-2-(pyrazolo[1,5-a]pyrazin-3-yl)pyrimidin-4-amine], for which the IC50 in test [1], in test [2] and in test [3] was below 100 nM each time.
